Measured values as given in patent US9187471B2, “Pyrido [4,3-b] indole and pyrido [3,4-b] indole derivatives and methods of use” (Medivation Technologies, Inc., priority 2010, dated 2015).

Columns and labels:
[1] = molecular target: T1, human recombinant histamine H1 receptor (Homo sapiens, UniProt P35367); assay: Histamine H1 radioligand binding ([3H]Pyrilamine); conditions: read-out: Histamine H1 Binding (1 μM), percent inhibition of specific binding; compound at 1 μM; 1.2 nM [3H]Pyrilamine
T1 construct: expressed in transfected cells; host or cells: CHO-K1
T1 sequence (P35367 whole entry): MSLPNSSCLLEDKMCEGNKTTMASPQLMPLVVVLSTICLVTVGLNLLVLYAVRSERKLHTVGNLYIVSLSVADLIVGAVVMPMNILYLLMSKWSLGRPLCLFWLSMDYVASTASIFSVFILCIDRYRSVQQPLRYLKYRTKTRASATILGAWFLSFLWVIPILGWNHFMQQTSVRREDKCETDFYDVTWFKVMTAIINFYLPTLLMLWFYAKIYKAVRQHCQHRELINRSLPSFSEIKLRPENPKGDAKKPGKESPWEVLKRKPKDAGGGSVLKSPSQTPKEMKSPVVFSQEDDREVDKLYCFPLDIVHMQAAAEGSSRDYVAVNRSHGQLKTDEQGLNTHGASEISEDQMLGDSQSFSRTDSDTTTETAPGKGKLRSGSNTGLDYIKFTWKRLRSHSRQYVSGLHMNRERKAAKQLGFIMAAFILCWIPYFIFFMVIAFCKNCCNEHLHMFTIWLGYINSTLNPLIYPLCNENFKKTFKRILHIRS
In short: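 Human recombinant H1 receptor expressed in CHO-K1 cells, in 50 mM Tris-HCl pH 7.4 with 2 mM MgCl2, 100 mM NaCl, 250 mM sucrose. Non-specific binding defined with 1 μM pyrilamine; bound [3H]pyrilamine counted after filtration and washing. Values are percent inhibition of specific binding.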

[2] = molecular target: T2, rat adrenergic α1A receptor (Rattus norvegicus, UniProt P43140); assay: Adrenergic α1A radioligand binding ([3H]Prazosin); conditions: read-out: Adrenergic (0.1 μM) a1A, percent inhibition of specific binding; compound at 0.1 μM; 0.25 nM [3H]Prazosin
T2 construct: rat adrenergic α1A receptor obtained from Wistar Rat submaxillary glands; from tissue; host or cells: Wistar rat submaxillary glands
T2 sequence (P43140 1-466): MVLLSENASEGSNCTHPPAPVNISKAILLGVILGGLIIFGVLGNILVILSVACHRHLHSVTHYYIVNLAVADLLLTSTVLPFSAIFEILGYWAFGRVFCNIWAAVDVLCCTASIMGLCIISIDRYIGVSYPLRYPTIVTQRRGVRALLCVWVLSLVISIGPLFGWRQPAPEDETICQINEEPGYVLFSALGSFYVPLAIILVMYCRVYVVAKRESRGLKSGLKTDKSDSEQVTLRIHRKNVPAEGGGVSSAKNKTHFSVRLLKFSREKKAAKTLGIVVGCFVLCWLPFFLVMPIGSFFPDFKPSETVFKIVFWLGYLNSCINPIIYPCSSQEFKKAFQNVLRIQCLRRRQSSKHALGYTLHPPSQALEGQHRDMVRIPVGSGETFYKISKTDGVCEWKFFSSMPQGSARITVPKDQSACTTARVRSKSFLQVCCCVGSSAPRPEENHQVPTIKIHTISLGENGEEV
Method: To evaluate in radioligand binding assays the activity of compounds of the invention, rat adrenergic α1A receptor obtained from Wistar Rat submaxillary glands (Michel, A. et al, Br. J. Pharmacol. 98:883, 1989) in a modified Tris-HCl buffer (50 mM Tris-HCl buffer, pH 7.4, 0.5 mM EDTA) was used. Compounds of the invention were incubated with 0.25 nM [^3H]Prazosin for 60 min at 25° C. Non-specific binding was estimated in the presence of 10 μM phentolamine Receptor proteins were filtered and washed, the filters were then counted to determine [^3H]Prazosin specifically bound. […] Compounds of the invention were tested in this biochemical assay and percent inhibition of specific binding was determined.

[3] = molecular target: T3, human recombinant adrenergic α2C receptor (Homo sapiens, UniProt P18825); assay: Adrenergic α2C radioligand binding ([3H]MK-912); conditions: read-out: Adrenergic (0.1 μM) a2C, percent inhibition of specific binding; compound at 0.1 μM; 1 nM [3H]MK-912
T3 construct: expressed in transfected cells; host or cells: insect Sf9 cells
T3 sequence (P18825 1-462): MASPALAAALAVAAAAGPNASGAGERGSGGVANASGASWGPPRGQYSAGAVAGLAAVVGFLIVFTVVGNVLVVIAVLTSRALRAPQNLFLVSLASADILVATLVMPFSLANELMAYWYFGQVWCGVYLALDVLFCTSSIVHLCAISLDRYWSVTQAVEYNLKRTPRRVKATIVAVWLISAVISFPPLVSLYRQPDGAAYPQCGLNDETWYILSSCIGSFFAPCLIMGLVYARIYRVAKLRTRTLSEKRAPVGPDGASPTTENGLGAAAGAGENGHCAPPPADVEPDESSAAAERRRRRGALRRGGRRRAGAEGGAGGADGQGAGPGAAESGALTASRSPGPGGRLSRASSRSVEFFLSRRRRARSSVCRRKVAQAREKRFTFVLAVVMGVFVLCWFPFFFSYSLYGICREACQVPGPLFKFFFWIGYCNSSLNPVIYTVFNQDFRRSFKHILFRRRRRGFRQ
Method: To evaluate in radioligand binding assays the activity of compounds of the invention, human recombinant adrenergic α2C receptor expressed in insect Sf9 cells (Uhlen, S. et al, J. Pharmacol. Exp. Ther. 271:1558, 1994) in a modified Tris-HCl buffer (50 mM Tris-HCl, pH 7.4, 12.5 mM MgCl2, 2 mM EDTA) was used. Compounds of the invention were incubated with 1 nM [^3H]MK-912 for 60 min at 25° C. Non-specific binding was estimated in the presence of 10 μM WB-4101. Receptor proteins were filtered and washed, the filters were then counted to determine [^3H]MK-912 specifically bound. […] Compounds of the invention were tested in this biochemical assay and percent inhibition of specific binding was determined.

[4] = molecular target: T4, human recombinant dopamine D2L receptor (Homo sapiens, UniProt P14416); assay: Dopamine D2L radioligand binding ([3H]Spiperone); conditions: 0.16 nM [3H]Spiperone; for inhibition at 1 µM: read-out: Dopamine D2L (1 μM), percent inhibition of specific binding, compound at 1 μM; for inhibition at 0.1 µM: read-out: Dopamine D2L (0.1 μM), percent inhibition of specific binding, compound at 0.1 μM
T4 construct: expressed in transfected cells; host or cells: CHO
T4 sequence (P14416 whole entry): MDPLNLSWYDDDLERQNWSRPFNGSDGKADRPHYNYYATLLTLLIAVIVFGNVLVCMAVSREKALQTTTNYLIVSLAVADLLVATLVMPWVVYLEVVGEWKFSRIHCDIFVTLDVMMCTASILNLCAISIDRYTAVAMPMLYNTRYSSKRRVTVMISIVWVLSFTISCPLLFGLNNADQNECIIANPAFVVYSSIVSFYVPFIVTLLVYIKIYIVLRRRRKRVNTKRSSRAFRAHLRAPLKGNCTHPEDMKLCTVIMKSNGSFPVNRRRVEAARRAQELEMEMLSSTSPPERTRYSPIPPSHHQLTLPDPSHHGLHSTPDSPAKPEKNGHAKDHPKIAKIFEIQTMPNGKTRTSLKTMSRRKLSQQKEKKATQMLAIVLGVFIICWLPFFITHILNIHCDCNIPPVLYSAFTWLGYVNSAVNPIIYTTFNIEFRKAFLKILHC
Method: Non-specific binding was estimated in the presence of 10 μM Haloperidol. Receptor proteins were filtered and washed, the filters were then counted to determine [^3H]Spiperone specifically bound.

[5] = molecular target: T5, human recombinant serotonin (5-Hydroxytryptamine) 5-HT5A receptor (Homo sapiens, UniProt P47898); assay: Serotonin 5-HT5A radioligand binding ([3H]LSD); conditions: compound at 0.1 μM; read-out: Inhibition of ligand binding, Serotonin 5-HT5A (percent inhibition of specific binding)
T5 construct: expressed in transfected cells; host or cells: CHO-K1
T5 sequence (P47898 whole entry): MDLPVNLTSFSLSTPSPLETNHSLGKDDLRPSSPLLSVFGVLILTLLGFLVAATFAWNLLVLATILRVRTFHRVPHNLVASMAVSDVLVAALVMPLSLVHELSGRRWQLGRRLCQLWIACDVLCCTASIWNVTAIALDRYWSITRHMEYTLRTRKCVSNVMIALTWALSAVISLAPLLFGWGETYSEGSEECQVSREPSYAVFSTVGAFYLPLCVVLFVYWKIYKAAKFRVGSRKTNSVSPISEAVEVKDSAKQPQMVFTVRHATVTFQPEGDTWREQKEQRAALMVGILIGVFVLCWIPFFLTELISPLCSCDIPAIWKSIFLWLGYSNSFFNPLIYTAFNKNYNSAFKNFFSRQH
Method: Compounds of the invention were incubated with 1.7 nM [^3H]Lysergic acid diethylamide (LSD) for 60 min at 37° C. […] Receptor proteins were filtered and washed, the filters were counted to determine [^3H]LSD specifically bound.

[6] = molecular target: T6, human recombinant serotonin (5-Hydroxytryptamine) 5-HT6 receptor (Homo sapiens, UniProt P50406); assay: Serotonin 5-HT6 radioligand binding ([3H]LSD); conditions: compound at 0.1 μM; read-out: Inhibition of ligand binding, Serotonin 5-HT6 (percent inhibition of specific binding)
T6 construct: expressed in transfected cells; host or cells: HeLa
T6 sequence (P50406 whole entry): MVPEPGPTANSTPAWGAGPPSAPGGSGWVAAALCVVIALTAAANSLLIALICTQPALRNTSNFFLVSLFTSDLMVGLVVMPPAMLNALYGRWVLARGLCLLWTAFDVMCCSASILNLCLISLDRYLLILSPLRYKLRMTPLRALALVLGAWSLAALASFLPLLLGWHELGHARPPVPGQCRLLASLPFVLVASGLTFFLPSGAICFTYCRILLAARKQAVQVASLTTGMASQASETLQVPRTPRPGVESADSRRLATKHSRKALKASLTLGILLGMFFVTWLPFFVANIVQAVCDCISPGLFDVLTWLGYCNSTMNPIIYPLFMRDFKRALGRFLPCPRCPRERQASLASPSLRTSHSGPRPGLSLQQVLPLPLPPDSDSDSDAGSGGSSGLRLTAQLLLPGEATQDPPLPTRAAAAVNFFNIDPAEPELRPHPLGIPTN
Excerpt: Receptor proteins were filtered and washed, the filters were then counted to determine [3H]LSD specifically bound.

[7] = molecular target: T7, human recombinant serotonin (5-Hydroxytryptamine) 5-HT7 receptor (Homo sapiens, UniProt P34969); assay: Serotonin 5-HT7 radioligand binding ([3H]LSD); conditions: compound at 0.1 μM; read-out: Inhibition of ligand binding, Serotonin 5-HT7 (percent inhibition of specific binding)
T7 construct: expressed in transfected cells; host or cells: CHO
T7 sequence (P34969 whole entry): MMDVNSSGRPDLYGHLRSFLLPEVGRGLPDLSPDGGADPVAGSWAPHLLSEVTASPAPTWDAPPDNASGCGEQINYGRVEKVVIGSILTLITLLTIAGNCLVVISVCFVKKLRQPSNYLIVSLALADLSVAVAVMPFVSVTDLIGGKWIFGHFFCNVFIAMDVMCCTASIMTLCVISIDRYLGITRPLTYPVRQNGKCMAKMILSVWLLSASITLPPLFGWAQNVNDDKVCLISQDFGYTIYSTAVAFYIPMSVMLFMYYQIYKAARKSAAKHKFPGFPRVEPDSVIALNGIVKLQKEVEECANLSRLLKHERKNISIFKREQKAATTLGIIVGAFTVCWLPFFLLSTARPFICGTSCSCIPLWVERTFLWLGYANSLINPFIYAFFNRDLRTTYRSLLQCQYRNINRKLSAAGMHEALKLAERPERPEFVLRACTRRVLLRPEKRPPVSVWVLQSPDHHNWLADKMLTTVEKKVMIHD
Method: Lysergic acid diethylamide (LSD) for 120 min. at 25° C. […] Receptor proteins were filtered and washed, the filters were then counted to determine [^3H]LSD specifically bound.

Row | SMILES | inhibition at 1 µM [1] [%] | inhibition at 0.1 µM [2] [%] | inhibition at 0.1 µM [3] [%] | inhibition at 1 µM [4] [%] | inhibition at 0.1 µM [5] [%] | inhibition at 0.1 µM [6] [%] | inhibition at 0.1 µM [7] [%] | inhibition at 0.1 µM [4] [%]
1 | Cc1ccc2c(c1)c1c(n2-c2ccccc2-c2ccc3c(ccn3C)c2)CCN(C)C1 [Compound No. 85, 2,8-dimethyl-5-(2-(1-methyl-1H-indol-5-yl)phenyl)-2,3,4,5-tetrahydro-1H-pyrido[4,3-b]indole] | 8 | 24 | 46 | 11 | 50 | 49 | 26 | 
2 | Cc1ccc2c(c1)c1c(n2-c2cccc(-c3ccc(C)s3)c2)CCN(C)C1 [Compound No. 64, 2,8-dimethyl-5-(3-(5-methylthiophen-2-yl)phenyl)-2,3,4,5-tetrahydro-1H-pyrido[4,3-b]indole] | 23 | -8 | 12 | 24 | 30 | -3 | 31 | 
3 | Cc1ccc2c(c1)c1c(n2-c2cscc2-c2ccnn2C)CCN(C)C1 [Compound No. 150] | 22 | 36 | 10 |  | 65 | 14 | 88 | 5
4 | Cc1csc(-c2ccc(-n3c4c(c5cc(C)ccc53)CN(C)CC4)nc2)c1 [Compound No. 144, 2,8-dimethyl-5-(5-(4-methylthiophen-2-yl)pyridin-2-yl)-2,3,4,5-tetrahydro-1H-pyrido[4,3-b]indole] | 11 | 27 | 49 | 5 | 38 | 13 | 37 | 
5 | CC(=O)Nc1ccc(-c2cccc(-n3c4c(c5cc(C)ccc53)CN(C)CC4)c2)cn1 [Compound 45, N-(5-(3-(2,8-dimethyl-3,4-dihydro-1H-pyrido[4,3-b]indol-5(2H)-yl)phenyl)pyridin-2-yl)acetamide] | 8 | 13 | 7 | 20 | 37 | 6 | 51 | 
6 | Cc1ccc2c(c1)c1c(n2-c2cccc(-c3sccc3C)c2)CCN(C)C1 [Compound 43, 2,8-dimethyl-5-(3-(3-methylthiophen-2-yl)phenyl)-2,3,4,5-tetrahydro-1H-pyrido[4,3-b]indole] | 26 | 13 | -16 | 26 | 39 | 28 | 33 | 
7 | Cc1ccc2c(c1)c1c(n2-c2cscc2-c2ccc3cnccc3c2)CCN(C)C1 [Compound No. 68] | 30 | 71 | 29 | 9 | 78 | 18 | 99 | 
8 | Cc1ccc2c(c1)c1c(n2-c2ccc(-c3ccc(C)nc3)cn2)CCN(C)C1 [Compound No. 156, 2,8-dimethyl-5-(6′-methyl-3,3′-bipyridin-6-yl)-2,3,4,5-tetrahydro-1H-pyrido[4,3-b]indole] | 12 | 39 | -13 |  | 41 | -5 | 28 | -7
9 | Cc1ccc2c(c1)c1c(n2-c2ccccc2-c2ccnn2C)CCN(C)C1 [Compound 32] | 22 | 27 | 20 | 10 | 26 | 5 | 55 | 
10 | CC(=O)Nc1ccc(-c2ccccc2-n2c3c(c4cc(C)ccc42)CN(C)CC3)cn1 [Compound No. 83, N-(5-(2-(2,8-dimethyl-3,4-dihydro-1H-pyrido[4,3-b]indol-5(2H)-yl)phenyl)pyridin-2-yl)acetamide] | 22 | 23 | -5 | 15 | 11 | 3 | 15 | 
11 | CNC(=O)c1ccc(-c2ccccc2-n2c3c(c4cc(C)ccc42)CN(C)CC3)cn1 [Compound No. 71, 5-(2-(2,8-dimethyl-3,4-dihydro-1H-pyrido[4,3-b]indol-5(2H)-yl)phenyl)-N-methylpicolinamide] | 18 | 65 | -1 | 10 | 29 | -7 | 27 | 
12 | Cc1ccc2c(c1)c1c(n2-c2cscc2-c2cccc3[nH]ncc23)CCN(C)C1 [Compound 41] | 28 | 59 | 55 | 24 | 94 | 36 | 96 | 
13 | Cc1ccc2c(c1)c1c(n2-c2cscc2-c2cnc(N(C)C)nc2)CCN(C)C1 [Compound 40] | 15 | 43 | -17 | 7 | 76 | 19 | 49 | 
14 | Cc1ccc2c(c1)c1c(n2-c2cscc2-c2ccc3c(ccn3C)c2)CCN(C)C1 [Compound 33] | -7 | 57 | 87 | 19 | 93 | 60 | 94 | 
